Results as given in article PMC3718800, “Structural and Functional Perturbation of Giardia lamblia Triosephosphate Isomerase by Modification of a Non-Catalytic, Non-Conserved Region” (PLoS ONE, 2013).
“And” between values parts separate entries of the source, which are not always exact repeats. Equal entries are not always repeated.

Key:
[1] = test system: GlTIM; details: cited from earlier work
[2] = target: T1, C222D GlTIM (Giardia intestinalis, UniProt P36186, C222D); assay: Binding of 2-PG by change in intrinsic fluorescence; set-up: species or system Giardia lamblia
T1 construct: made in house; host or cells: E. coli BL21(DE3)pLys
T1 sequence (P36186 whole entry C222D): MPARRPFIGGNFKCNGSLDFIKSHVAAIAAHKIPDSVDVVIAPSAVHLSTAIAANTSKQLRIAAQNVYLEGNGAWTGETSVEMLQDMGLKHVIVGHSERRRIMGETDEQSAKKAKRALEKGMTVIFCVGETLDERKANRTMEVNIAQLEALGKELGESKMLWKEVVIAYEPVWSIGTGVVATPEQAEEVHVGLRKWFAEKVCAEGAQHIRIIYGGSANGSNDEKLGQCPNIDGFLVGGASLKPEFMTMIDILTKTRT
Description: (§1) The change in the intrinsic fluorescence of GlTIM in response to the addition of the transition state analog 2-PG was used to determine the affinity of the enzyme for this ligand, as previously reported. Intrinsic fluorescence spectra were collected before and after each addition of 1 or 2 μL aliquots of a 3 or 30 mM stock solution of 2-PG. The final volume added to the fluorescence cell was always less than 5% of the total volume; there was no effect on the absorbance of the protein solution at 280 nm at the highest 2-PG concentration assayed. In all cases, the spectra of samples without protein were subtracted from those that contained the enzyme. For each mutant, the maximal fluorescence intensity at 332 nm, for every 2-PG concentration, was plotted and fitted to y = (α/2Et)(Et+x+Kd) - √ (Et+x+Kd)^2– (4xEt), where y = 1 - (Fi/F) (Fi, initial fluorescence; F, fluorescence intensity at each 2-PG concentration); α is the maximal fluorescence change attained at saturating concentration of the ligand, Et represents the concentration of binding sites, Kd is the equilibrium dissociation constant and x is the concentration of 2-PG [21], [23].

[3] = target: T2, C222M GlTIM (Giardia intestinalis, UniProt P36186, C222M); assay: as above; set-up: species or system Giardia lamblia
T2 construct: made in house; host or cells: E. coli BL21(DE3)pLys
T2 sequence (P36186 whole entry C222M): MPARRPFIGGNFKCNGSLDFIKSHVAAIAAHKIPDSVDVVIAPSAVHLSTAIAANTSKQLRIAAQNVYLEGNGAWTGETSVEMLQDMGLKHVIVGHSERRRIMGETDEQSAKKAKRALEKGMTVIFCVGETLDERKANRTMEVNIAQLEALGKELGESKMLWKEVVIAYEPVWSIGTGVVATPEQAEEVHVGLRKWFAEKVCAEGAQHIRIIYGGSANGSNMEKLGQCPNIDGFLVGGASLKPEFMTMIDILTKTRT
Description: as §1

[4] = target: T3, C222K GlTIM (Giardia intestinalis, UniProt P36186, C222K); assay: as above; set-up: species or system Giardia lamblia
T3 construct: made in house; host or cells: E. coli BL21(DE3)pLys
T3 sequence (P36186 whole entry C222K): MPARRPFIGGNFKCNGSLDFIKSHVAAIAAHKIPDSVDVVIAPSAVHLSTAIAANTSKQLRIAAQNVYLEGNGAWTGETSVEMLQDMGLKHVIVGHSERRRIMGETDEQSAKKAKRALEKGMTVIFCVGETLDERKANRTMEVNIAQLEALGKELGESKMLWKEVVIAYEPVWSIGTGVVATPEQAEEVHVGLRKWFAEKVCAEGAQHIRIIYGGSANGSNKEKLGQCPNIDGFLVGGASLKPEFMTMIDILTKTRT
Description: as §1

[5] = target: T4, C222N GlTIM (Giardia intestinalis, UniProt P36186, C222N); assay: as above; set-up: species or system Giardia lamblia
T4 construct: made in house; host or cells: E. coli BL21(DE3)pLys
T4 sequence (P36186 whole entry C222N): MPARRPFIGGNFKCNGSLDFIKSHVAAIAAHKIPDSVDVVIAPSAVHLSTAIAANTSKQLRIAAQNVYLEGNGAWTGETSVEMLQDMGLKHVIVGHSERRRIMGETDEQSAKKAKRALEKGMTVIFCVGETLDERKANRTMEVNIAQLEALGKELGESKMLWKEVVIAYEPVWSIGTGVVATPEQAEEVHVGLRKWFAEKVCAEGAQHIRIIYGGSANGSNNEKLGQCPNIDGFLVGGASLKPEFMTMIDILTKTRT
Description: as §1

[6] = target: T5, C222V GlTIM (Giardia intestinalis, UniProt P36186, C222V); assay: as above; set-up: species or system Giardia lamblia
T5 construct: made in house; host or cells: E. coli BL21(DE3)pLys
T5 sequence (P36186 whole entry C222V): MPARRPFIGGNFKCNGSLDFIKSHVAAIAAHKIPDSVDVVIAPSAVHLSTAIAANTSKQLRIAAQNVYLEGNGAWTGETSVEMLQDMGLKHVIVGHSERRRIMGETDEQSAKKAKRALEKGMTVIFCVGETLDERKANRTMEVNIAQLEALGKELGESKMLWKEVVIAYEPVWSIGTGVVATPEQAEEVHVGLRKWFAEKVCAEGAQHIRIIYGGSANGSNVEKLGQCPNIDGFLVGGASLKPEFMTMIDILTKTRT
Description: as §1

[7] = target: T6, WT GlTIM (Giardia intestinalis, UniProt P36186); assay: as above; set-up: species or system Giardia lamblia; details: 2-PG vs WT GlTIM, fluorescence at 332 nm
T6 construct: made in house; host or cells: E. coli BL21(DE3)pLys
T6 sequence (P36186 whole entry): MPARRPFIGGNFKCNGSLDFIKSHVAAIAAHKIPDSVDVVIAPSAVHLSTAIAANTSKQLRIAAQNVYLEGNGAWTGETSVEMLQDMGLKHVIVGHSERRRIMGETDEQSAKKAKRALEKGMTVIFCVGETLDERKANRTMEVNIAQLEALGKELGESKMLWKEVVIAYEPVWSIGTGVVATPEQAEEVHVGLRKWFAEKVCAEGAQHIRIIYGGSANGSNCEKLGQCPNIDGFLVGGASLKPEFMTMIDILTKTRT
Description: as §1

[8] = target: T7, C222F GlTIM (Giardia intestinalis, UniProt P36186, C222F); assay: as above; set-up: species or system Giardia lamblia
T7 construct: made in house; host or cells: E. coli BL21(DE3)pLys
T7 sequence (P36186 whole entry C222F): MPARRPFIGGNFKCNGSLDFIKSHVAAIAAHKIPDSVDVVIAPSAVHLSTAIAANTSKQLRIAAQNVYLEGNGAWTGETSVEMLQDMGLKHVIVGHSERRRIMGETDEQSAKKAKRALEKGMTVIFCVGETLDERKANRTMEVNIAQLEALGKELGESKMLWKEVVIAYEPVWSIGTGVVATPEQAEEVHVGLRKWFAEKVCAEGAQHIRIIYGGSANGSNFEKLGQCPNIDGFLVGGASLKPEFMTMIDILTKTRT
Description: as §1

[9] = target: T1, C222D GlTIM; assay: Competitive inhibition of TIM activity by 2-PG (global fit); assay type: biochemical, Giardia lamblia; details: 2-PG vs C222D
Description: (§2) Glyceraldehyde 3-phosphate (GAP), buffers, salts and all the other analytical grade reagents were acquired from Sigma–Aldrich; α-glycerol-3-phosphate dehydrogenase (α-GDH) was from Roche, crystallization screen kits were obtained from Hampton Research. Restriction enzymes, DNA polymerase and T4 DNA ligase were purchased from New England BioLabs and Invitrogene. Oligonucleotide synthesis and DNA sequencing was performed at the Unidad de Biología Molecular, Instituto de Fisiología Celular, UNAM. Protein concentration was determined by the bicinchoninic acid method or by absorbance at 280 nm for pure GlTIM (ε280 = 26600 M^-1cm^-1). The TIM activity was determined at 25°C by a coupled assay, following the decrease in absorbance at 340 nm. The standard reaction mixture contained 100 mM triethanolamine/10 mM EDTA, pH 7.4 (TE buffer), 1 mM GAP, 0.2 mM NADH, and 0.9 units of α-GDH (20 μg/mL); the reaction was initiated by addition of 5 ng/mL of WT, C222V or C222M GlTIM, 10 ng/mL of C222N, 20 ng/mL of C222D or C222F, and 200 ng/mL of C222K. Kinetic, binding and stability data were analyzed by non-linear regression calculations with Origin software.
(§3) Determination of Km and Vmax was performed by fitting initial velocity data at GAP concentrations ranging from 0.3 to 3 mM to the Michaelis-Menten equation (v = Vmax•S/Km+S) by non-linear regression calculations. The kcat was derived from Vmax by considering a molecular mass for the monomer of 27.7 kDa. The Ki for 2-phosphoglycolate (2-PG) was calculated by global fit of initial velocity curves (GAP from 0.3 to 3 mM) obtained at different fixed concentrations of the inhibitor. Prior to fitting collectively the data to the simple competitive inhibition equation (v = Vmax•S/Km(1+I/Ki)+S), individual data were plotted as double reciprocal plots to confirm competitive inhibition.

[10] = target: T2, C222M GlTIM; assay: as above; assay type: biochemical, Giardia lamblia
Description: as §2, §3

[11] = target: T3, C222K GlTIM; assay: as above; assay type: biochemical, Giardia lamblia; details: highest concentrations of 2-PG that could be assayed
Description: as §2, §3

[12] = target: T4, C222N GlTIM; assay: as above; assay type: biochemical, Giardia lamblia
Description: as §2, §3

[13] = target: T5, C222V GlTIM; assay: as above; assay type: biochemical, Giardia lamblia
Description: as §2, §3

[14] = target: T6, WT GlTIM; assay: as above; assay type: biochemical, Giardia lamblia; details: 2-PG vs WT GlTIM
Description: as §2, §3

[15] = target: T7, C222F GlTIM; assay: as above; assay type: biochemical, Giardia lamblia; details: 2-PG vs C222F
Description: as §2, §3

[16] = test system: yeast TIM, serine replaced by alanine in the YGGS motif; set-up: method as in PMID 1390632; details: mutant vs wild type yeast TIM; cited from earlier work
[17] = test system: yeast TIM, tyrosine by phenylalanine in the YGGS motif; set-up: method as in PMID 1390632; details: mutant vs wild type yeast TIM; cited from earlier work

## O=C(O)c1cc(SSc2ccc([N+](=O)[O-])c(C(=O)O)c2)ccc1[N+](=O)[O-] [DTNB, 5,5′-dithio-bis (2-nitrobenzoic acid)]
[1]
  catalytic activity of GlTIM after derivatization of C222: completely abolished
  inactivation of GlTIM: total inactivation

## CSS(C)(=O)=O [MMTS, methylmethane thiosulfonate]
[1]
  catalytic activity of GlTIM after derivatization of C222: reduced the catalytic activity of GlTIM by half
  decrease of the kcat/Km ratio after modification of C222: three-fold decrease

## O=C(O)COP(=O)(O)O [2-PG, 2-phosphoglycolate]
[2]
  changes in fluorescence induced by 2-PG: minimal
[3]; 2-PG vs C222M, fluorescence at 332 nm
  Kd: 79.4 ± 8.5 µM
[3]; C222M vs WT
  Kd MUT/Kd WT ratio: 3.01
[4]
  changes in fluorescence induced by 2-PG: minimal
[5]; 2-PG vs C222N, fluorescence at 332 nm
  Kd: 113 ± 41.7 µM
[5]; C222N vs WT
  Kd MUT/Kd WT ratio: 4.29
[6]; 2-PG vs C222V, fluorescence at 332 nm
  Kd: 57.4 ± 7.1 µM
[6]; C222V vs WT
  Kd MUT/Kd WT ratio: 2.17
[7]
  Kd: 26.4 ± 2.6 µM
[8]
  changes in fluorescence induced by 2-PG: minimal
[9]
  Ki: 1480 ± 168 µM
[10]; 2-PG vs C222M, competitive
  Ki: 325 ± 50 µM
[10]; C222M vs WT
  Ki MUT/Ki WT ratio: 3.7 and 3.74
[11]
  inhibition by 2-PG: only minimal inhibition was observed
[12]; 2-PG vs C222N, competitive
  Ki: 560 ± 59 µM
[12]; C222N vs WT
  Ki MUT/Ki WT ratio: 6.4 and 6.44
[13]; 2-PG vs C222V, competitive
  Ki: 98 ± 10 µM
[13]; C222V vs WT
  Ki MUT/Ki WT ratio: 1.13
[14]
  Ki: 87 ± 15 µM
[15]
  Ki: 7280 ± 2010 µM

## O=C(COP(=O)(O)O)NO [PGH, phosphoglycolohydroxamate]
[16]
  change of affinity: 5 fold
[17]
  increase in the Kd: 200 fold
